The source of these data is patent US20250017888A1, “COMPOUNDS FOR TREATING DISEASES ASSOCIATED WITH HYALURONAN OVERPRODUCTION” (THE ROYAL VETERINARY COLLEGE, priority 2021, published 2025).

Common to all, as to format: in vivo, mouse
The subject of data set [1] is Str/ort mice. Description: Histology and grading of articular cartilage lesions in Str/ort mice. The protocol: At 10-13 weeks of age, 21 male Str/ort mice (n=7/group) were assigned randomly to vehicle, hylin-betaine and xantho-betaine groups and were treated intraperitoneally 18 weeks with either vehicle (5% DMSO in 95% peanut oil), 50 mg/kg compound of Example 1 (“hylin-betaine”) in 5% DMSO and 95% peanut oil or 50 mg/kg compound of Example 2 (“xantho-betaine”) in 5% DMSO and 95% peanut oil. Dissected right knees were fixed in neutral buffered formalin, decalcified (Immunocal, Quartett, Berlin), wax-embedded and 6 μm coronal sections cut. Multiple sections (five/slide) from 120 μm intervals across the whole joint were stained with Tollidine blue (0.1% in 0.1 M acetate buffer, pH 5.6) and AC lesion severity graded. Sections from right vehicle, hylin-betaine and xantho-betaine treated Str/ort joints were stained with Safranin O. Sections were dewaxed, and AC lesion severity was scored in Str/ort mice by the methods of Chambers et al., (Chambers et al Expression of collagen and aggrecan genes in normal and osteoarthritic murine knee joints. Osteoarthritis and cartilage/OARS, Osteoarthritis Research Society. 2002; 10(1):51-61) consistent with an internationally-recognized system. Briefly, grade 0: normal; grade 1: rough surface or superficial zone lesions; grade 2: lesion down to the intermediate zone; grade 3: lesions down to tidemark or loss of AC; grades 4 and 5: AC loss across between 20% and 50% or 50-80% of condylar surface; grade 6: loss with subchondral bone exposure. Multiple slides (˜10), each containing five 6 μm sections sampled at 120 μm intervals spanning each entire joint were graded. Grading in each joint compartment (lateral/medial, tibia/femur) allowed for a maximum (most severe) grade to be assigned in each section, and used to produce an overall ‘average’ maximum grade in each group of mice, for the entire joint and for each compartment. In addition, a mean score was produced for each joint and for each compartment and these similarly used to produce an overall ‘average’ mean grade in each group of mice. Mean grades provide a measure of the ‘extent’ of AC lesion (representing relative volume) in each joint/compartment.

In data set [2] the test system is Str/ort mice. Description: Gait analysis (treadmill, Digigait) in Str/ort mice. The protocol: (§1) At 10-13 weeks of age, 21 male Str/ort mice (n=7/group) were assigned randomly to vehicle, hylin-betaine and xantho-betaine groups and were treated intraperitoneally 18 weeks with either vehicle (5% DMSO in 95% peanut oil), 50 mg/kg compound of Example 1 (“hylin-betaine”) in 5% DMSO and 95% peanut oil or 50 mg/kg compound of Example 2 (“xantho-betaine”) in 5% DMSO and 95% peanut oil.
Gait was monitored using a treadmill-based video system (DigigaitTM system) in three treatment groups of mice at three time point, week 1, week 9 and week 18 of treatment. The number of mice was 7, 7 and 5 in groups 1, 2 and 3, respectively.
[…] gait descriptors were used for the analyses. Thirty-four descriptors were obtained directly from the software of the system in the 4 limbs (LF: left front; RF: right front; LR: left rear; RR: right rear). All the others (143) were calculated indexes from gait measurements including swing, stance, brake, propel and stride times, stride length, frequency and coefficient of variation, paw area and paw angle and the variability of those two traits, the coefficient of variation of swing duration mid line distance, and minimum and maximum dAdT. The ratios of times were calculated in the 4 limbs: Brake, Propel, and Swing times relative to Stance and Stride times, Stance/Swing and Stance/Stride. In addition, the following additional indexes were considered:
In order to investigate whether there were differences among groups for each descriptor at the three experimental dates, an ANOVA was performed using data corresponding to each descriptor and date. Bonferroni correction was applied to counteract the problem of multiple comparisons.
A t-test analysis was also performed comparing only two groups at a time. In order to assess whether differences between both groups could be due to differences in gait change regarding the initial condition (at 2014/12/23), two sets of analyses were performed for data at 2015/02/18 and 2015/04/14, respectively by using Logistic Regression Analysis. The model included two independent variables: the initial value for each descriptor and the difference between the corresponding value at 2015/02/18 (or 2015/04/14) and the initial value. Bonferroni correction was also applied.

Data set [3] deals with Str/ort mice. Description: Micro-CT of tibial trabecular and cortical bone in Str/ort mice. As to conditions: 10-90% of total tibial length, vs vehicle.
Data set [4] relates to Str/ort mice. The description is as above. The protocol: At 10-13 weeks of age, 21 male Str/ort mice (n=7/group) were assigned randomly to vehicle, hylin-betaine and xantho-betaine groups and were treated intraperitoneally 18 weeks with either vehicle (5% DMSO in 95% peanut oil), 50 mg/kg compound of Example 1 (“hylin-betaine”) in 5% DMSO and 95% peanut oil or 50 mg/kg compound of Example 2 (“xantho-betaine”) in 5% DMSO and 95% peanut oil. Micro-CT scanning and analysis were performed as described previously. Briefly, tibiae from vehicle, hylin-betaine and xantho-betaine treated groups were scanned using the Skyscan 1172 (Skyscan, Kontich, Belgium), with x-ray tube operated at 50 kV and 200 Micro-A, 1600 ms exposure time with a 0.5 mm aluminium filter and a voxel size of micro-m 5. The scanning time for each sample was approximately 2 hours. The slices were then reconstructed using NRecon 1.6.9.4 (Skyscan, Kontich, Belgium). 2D/3D analyses were performed using CTAn 1.15.4.0+ version software (Skyscan, Kontich, Belgium). Additionally, 3D visualization and production of colour-coded images of trabecular, cortical and skull bones were conducted using Avizo 9.0.0 software (FEI, Oregon USA). • a. Trabecular analysis: prior to analysis, Micro-CT images were re-oriented in DataViewer 1.5.0 (Skyscan, Kontich, Belgium), such that the cross-section within the transverse plane was perpendicular to the long axis of the bone. Tibial length was measured in CTAn 1.15.4.0+ software using a straight line measuring tool and the appearance of the trabecular ‘bridge’ connecting the two primary spongiosa bone ‘islands’ was set as reference point for analysis of the metaphyseal trabecular bone adjacent to the epiphyseal growth plate. 5% of the total bone length from this point (towards the diaphysis) was utilised for trabecular analysis of the proximal tibia. The trabecular region of interest was drawn freehand using the selection tool of CTAn, a few voxels away from the endocortical surfaces in order to avoid inclusion of remnants of primary spongiosa associated with cortical bone. The selected trabecular regions of interests were analysed using CTAn BatMan software (Skyscan, Kontich, Belgium) and morphometric parameters were recorded. • b. Whole bone cortical analysis: Whole bone analysis was performed on datasets derived from CT scans using BoneJ (version 1.4.0), an ImageJ plugin. Following segmentation, alignment and removal of fibula from the dataset, a minimum bone threshold was selected using a histogram based method in ImageJ which utilises all pixels in a stack to construct a histogram and was further confirmed using ImageJ “threshold function”. The threshold ranged between 22000-22100 and was applied to all datasets to separate higher density bone from soft tissues and air. This threshold was used in “Slice Geometry” function within BoneJ to calculate bone cross sectional area (CSA), second moment of area around the minor axis (Imin), second moment of area around the major axis (Imax), mean thickness determined by local thickness in two dimensions (Ct.Th), ellipticity and resistance to torsion (J). The most proximal (15%) and the most distal portions (25%) of tibial length were excluded from analysis, as these regions include trabecular bone.

Data set [5] relates to Str/ort mice. Description: Health evaluation of treated Str/ort mice. Particulars: 50 mg/kg intraperitoneally, 18 weeks, vs vehicle. The protocol: as §1
To assess the health status after hylin-betaine and xantho-betaine treatment, mice were monitored for their health status. The monitoring criteria were body surface temperature, body weight, gait, coat condition, skin tenting for dehydration, hunching, activity, breathing rate and general body condition. Mice were scored blind for each one of these criteria from 1-5 except for body weight and temperature.

Setting [6] is: 50 mg/kg intraperitoneally, 18 weeks, vs vehicle.
The mark [7] stands for this setting: 50 mg/kg intraperitoneally, 18 weeks.

Entries after “also recorded” stand apart in the source; their conditions may differ.

Take `COc1cc(/C=C/C(=O)/C=C/c2ccc(OC(=O)C[N+](C)(C)C)c(OC)c2)ccc1O.[Cl-]` [Hylin-betaine, 2-(4-((1E,4E)-5-(4-hydroxy-3-methoxyphenyl)-3-oxopenta-1,4-dien-1-yl)-2-methoxyphenoxy)-N,N,N-trimethyl-2-oxoethanaminium chloride]: the “effect on articular cartilage lesions / development of OA (overall)” value in the data set on Str/ort mice [1] (setting [6]) is on record as “prevents/improves articular cartilage lesions; also recorded: protective effect”. For the same compound, in the data set on Str/ort mice [1] (tibial and femoral lateral knee joint compartments, vs vehicle), the “Mean OA scores” value was “statistically significantly lower”. Also, in the data set with Str/ort mice [1] (vs vehicle treated Str/ort mice), the “maximum OA score” value is “trend for lower maximum score”. Also, the “mice that refused to run (drop-out) during the gait studies” value in the data set on Str/ort mice [2] (setting [7]) is reported as “no mice”. The “percentage of drop-out regarding the total number of runs” value in the data set with Str/ort mice [2] (setting [7]) is 0%. For the same compound, the “distribution of gait data (runs) by treatment group” value in the data set on Str/ort mice [2] (2014 Dec. 23), in the data set with Str/ort mice [2] (2015 Apr. 14) and in the data set with Str/ort mice [2] (2015 Feb. 18) was 7 in each case. The “effect on all gait descriptors” value in the data set with Str/ort mice [2] (any time point, compared with vehicle group) is “no significant effect”. The “effect on cortical bone (overall)” value in the data set with Str/ort mice [3] is “significantly alter”. In addition, the “metaphyseal trabecular bone architecture and mass (tibial length, BV/TV, TV, BV, eccentricity, thickness, separation, number)” value with Str/ort mice [4] (setting [6]) is recorded as “do not alter”. For the same compound, the “cortical cross-sectional area (CSA)” value in the data set on Str/ort mice [4] (apart from one distal region and a region close to tibio-fibula junction) is on record as “do not significantly”. Also, the “mean cortical cross-sectional thickness” value with Str/ort mice [4] (multiple regions from −15-60% tibial length, vs vehicle) is on record as “significantly enhanced”. Moreover, the “second moment of area around minor axis (Imin)” value with Str/ort mice [4] (vs vehicle, one region proximally) is “does not affect”. The tibial ellipticity result in the data set on Str/ort mice [4] (vs vehicle, region ˜40-50% along the tibia) is “modified by xantho-betaine but not hylin-betaine”. Further, in the data set with Str/ort mice [4] (vs vehicle, ˜35-55% of tibial length), the “second moment of area around major axis (Imax)” value is recorded as “did not affect”. Moreover, the “health status: weight, hunching, gait, activity, vocalisation and respiration scores, coat condition” value in the data set with Str/ort mice [5] is listed as “does not alter”.
